AC50 data for eleven compounds are collected here from ChEMBL document CHEMBL5291721, “A preclinical secondary pharmacology resource illuminates target-adverse drug reaction associations of marketed drugs” (Nat Commun, 2023).

Targets include Melanocortin receptor 3 (Homo sapiens, UniProt P41968); Vasopressin V1a receptor (Homo sapiens, UniProt P37288); Adenosine receptor A2a (Homo sapiens, UniProt P29274); Melanocortin receptor 4 (Homo sapiens, UniProt P32245).
A further assay concerns the target D(1A) dopamine receptor (Homo sapiens, UniProt P21728). In kind it is functional, cell-based.
Assay [1] has as its target T1, 5-hydroxytryptamine receptor 1A (Homo sapiens, UniProt P08908).
T1 sequence (P08908 whole entry): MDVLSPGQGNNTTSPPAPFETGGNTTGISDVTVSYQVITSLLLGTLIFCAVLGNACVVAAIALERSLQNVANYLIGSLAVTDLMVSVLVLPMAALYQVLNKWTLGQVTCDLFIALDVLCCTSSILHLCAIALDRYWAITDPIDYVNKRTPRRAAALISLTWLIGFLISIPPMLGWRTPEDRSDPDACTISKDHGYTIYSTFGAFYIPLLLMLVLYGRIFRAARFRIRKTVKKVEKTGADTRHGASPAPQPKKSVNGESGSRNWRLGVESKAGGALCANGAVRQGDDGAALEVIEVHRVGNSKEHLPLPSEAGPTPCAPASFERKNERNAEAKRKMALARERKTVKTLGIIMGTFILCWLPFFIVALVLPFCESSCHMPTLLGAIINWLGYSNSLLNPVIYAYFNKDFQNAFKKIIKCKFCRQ
The class given is functional, cell-based.

Assay [2] addresses T2, Muscarinic acetylcholine receptor M2 (Homo sapiens, UniProt P08172).
T2 sequence (P08172 whole entry): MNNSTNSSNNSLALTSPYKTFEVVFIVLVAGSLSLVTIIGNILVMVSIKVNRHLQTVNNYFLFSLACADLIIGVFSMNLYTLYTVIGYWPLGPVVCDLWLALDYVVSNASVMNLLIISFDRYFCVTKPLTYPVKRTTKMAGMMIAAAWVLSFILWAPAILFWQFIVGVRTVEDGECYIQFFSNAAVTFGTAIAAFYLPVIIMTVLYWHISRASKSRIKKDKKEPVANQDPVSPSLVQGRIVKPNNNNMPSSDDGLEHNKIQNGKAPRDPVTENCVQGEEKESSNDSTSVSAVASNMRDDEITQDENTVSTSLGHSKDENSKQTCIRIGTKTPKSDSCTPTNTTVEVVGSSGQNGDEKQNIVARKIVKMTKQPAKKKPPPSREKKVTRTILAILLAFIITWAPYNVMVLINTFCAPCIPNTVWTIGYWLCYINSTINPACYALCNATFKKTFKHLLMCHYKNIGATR
The class given is functional, cell-based.

In assay [3] the target is 5-hydroxytryptamine receptor 2B (Homo sapiens, UniProt P41595). In kind it is functional, cell-based.
Assay [4] has as its target T3, Amine oxidase [flavin-containing] A (Homo sapiens, UniProt P21397).
T3 sequence (P21397 whole entry): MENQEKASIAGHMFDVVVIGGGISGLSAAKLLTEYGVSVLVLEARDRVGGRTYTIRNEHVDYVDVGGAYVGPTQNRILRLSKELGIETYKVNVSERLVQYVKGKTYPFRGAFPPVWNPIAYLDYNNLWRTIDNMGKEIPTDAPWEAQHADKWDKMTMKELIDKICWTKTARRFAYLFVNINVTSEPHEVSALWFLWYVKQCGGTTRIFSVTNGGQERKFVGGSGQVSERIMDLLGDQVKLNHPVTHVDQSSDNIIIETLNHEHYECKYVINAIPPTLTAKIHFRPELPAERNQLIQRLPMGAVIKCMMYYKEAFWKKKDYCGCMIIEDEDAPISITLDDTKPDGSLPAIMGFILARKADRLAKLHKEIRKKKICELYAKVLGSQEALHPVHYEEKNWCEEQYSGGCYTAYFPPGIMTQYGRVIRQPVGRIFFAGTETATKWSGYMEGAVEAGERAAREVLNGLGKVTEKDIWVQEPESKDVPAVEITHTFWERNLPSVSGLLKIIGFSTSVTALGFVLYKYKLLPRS
The class given is functional.

Assay [5] deals with cGMP-inhibited 3',5'-cyclic phosphodiesterase 3A (Homo sapiens, UniProt Q14432). In kind it is functional.
Assay [6] addresses T4, Neuropeptide Y receptor type 1 (Homo sapiens, UniProt P25929).
T4 sequence (P25929 whole entry): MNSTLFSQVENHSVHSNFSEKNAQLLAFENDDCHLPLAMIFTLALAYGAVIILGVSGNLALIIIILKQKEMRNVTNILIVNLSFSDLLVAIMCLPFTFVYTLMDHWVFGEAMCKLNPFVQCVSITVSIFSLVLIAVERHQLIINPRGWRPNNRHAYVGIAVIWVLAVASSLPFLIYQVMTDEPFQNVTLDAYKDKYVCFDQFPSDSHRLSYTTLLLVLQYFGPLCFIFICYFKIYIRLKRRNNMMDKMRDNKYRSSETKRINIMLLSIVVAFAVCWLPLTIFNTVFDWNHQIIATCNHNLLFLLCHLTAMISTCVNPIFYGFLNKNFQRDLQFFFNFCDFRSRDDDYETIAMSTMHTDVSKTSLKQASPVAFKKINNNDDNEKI

The target in assay [7] is T5, Alpha-2A adrenergic receptor (Homo sapiens, UniProt P08913).
T5 sequence (P08913 whole entry): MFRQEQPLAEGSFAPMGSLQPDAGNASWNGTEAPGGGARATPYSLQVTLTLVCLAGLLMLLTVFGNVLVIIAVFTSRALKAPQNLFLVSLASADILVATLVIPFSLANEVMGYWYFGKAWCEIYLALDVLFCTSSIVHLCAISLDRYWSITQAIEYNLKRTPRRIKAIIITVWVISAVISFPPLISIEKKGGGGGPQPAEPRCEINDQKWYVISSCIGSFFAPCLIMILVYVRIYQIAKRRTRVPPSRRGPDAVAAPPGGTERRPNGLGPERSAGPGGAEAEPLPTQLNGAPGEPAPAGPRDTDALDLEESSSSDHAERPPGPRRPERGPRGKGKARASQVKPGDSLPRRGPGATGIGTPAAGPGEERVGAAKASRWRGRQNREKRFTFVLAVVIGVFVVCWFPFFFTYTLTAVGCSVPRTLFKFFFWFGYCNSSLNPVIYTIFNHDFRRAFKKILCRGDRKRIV
In kind it is functional, cell-based.

Assay [8] concerns the target Growth hormone secretagogue receptor type 1 (Homo sapiens, UniProt Q92847).
Also: assay procedure not described here.

Chain of Growth hormone secretagogue receptor type 1 (Q92847 whole entry): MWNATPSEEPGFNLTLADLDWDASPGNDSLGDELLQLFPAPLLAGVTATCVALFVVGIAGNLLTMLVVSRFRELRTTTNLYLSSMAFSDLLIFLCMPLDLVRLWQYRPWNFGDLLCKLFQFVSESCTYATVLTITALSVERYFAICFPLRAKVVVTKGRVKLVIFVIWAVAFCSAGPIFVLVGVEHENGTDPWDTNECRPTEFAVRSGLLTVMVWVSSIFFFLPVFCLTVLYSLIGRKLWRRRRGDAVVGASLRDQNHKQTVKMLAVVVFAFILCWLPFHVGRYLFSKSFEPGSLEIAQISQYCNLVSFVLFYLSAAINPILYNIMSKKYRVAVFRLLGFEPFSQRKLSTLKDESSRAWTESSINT
Chain of D(1A) dopamine receptor (P21728 whole entry): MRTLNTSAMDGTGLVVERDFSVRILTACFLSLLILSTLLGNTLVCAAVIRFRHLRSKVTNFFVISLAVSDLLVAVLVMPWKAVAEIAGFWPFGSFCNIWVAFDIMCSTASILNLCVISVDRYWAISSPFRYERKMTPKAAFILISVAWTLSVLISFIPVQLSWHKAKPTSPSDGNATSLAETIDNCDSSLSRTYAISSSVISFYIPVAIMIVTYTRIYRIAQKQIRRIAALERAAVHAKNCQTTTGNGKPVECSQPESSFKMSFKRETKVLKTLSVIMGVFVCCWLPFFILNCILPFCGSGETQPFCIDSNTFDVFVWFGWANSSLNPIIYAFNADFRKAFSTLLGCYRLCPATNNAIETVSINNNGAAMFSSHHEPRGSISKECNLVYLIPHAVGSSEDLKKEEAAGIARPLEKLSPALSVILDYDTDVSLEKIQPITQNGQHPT
Chain of Vasopressin V1a receptor (P37288 whole entry): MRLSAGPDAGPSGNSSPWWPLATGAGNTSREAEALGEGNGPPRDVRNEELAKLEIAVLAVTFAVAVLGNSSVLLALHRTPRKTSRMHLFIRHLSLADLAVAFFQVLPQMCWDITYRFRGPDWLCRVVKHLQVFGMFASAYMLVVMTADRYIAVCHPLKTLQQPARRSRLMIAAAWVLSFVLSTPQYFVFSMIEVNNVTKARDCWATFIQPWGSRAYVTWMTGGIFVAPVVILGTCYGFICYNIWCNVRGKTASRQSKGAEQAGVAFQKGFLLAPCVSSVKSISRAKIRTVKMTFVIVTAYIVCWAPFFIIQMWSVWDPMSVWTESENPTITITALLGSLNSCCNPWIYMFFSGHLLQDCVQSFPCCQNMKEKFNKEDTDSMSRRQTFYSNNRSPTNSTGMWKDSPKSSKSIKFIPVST
Chain of Melanocortin receptor 4 (P32245 whole entry): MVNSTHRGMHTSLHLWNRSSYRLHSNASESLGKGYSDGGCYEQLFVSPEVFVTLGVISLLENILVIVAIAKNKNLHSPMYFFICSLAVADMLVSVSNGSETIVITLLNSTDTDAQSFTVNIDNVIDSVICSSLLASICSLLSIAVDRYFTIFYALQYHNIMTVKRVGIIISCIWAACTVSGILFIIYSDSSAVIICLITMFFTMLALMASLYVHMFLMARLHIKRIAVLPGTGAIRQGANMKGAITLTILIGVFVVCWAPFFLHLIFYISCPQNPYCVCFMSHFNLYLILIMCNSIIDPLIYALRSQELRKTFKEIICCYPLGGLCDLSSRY
Chain of 5-hydroxytryptamine receptor 2B (P41595 whole entry): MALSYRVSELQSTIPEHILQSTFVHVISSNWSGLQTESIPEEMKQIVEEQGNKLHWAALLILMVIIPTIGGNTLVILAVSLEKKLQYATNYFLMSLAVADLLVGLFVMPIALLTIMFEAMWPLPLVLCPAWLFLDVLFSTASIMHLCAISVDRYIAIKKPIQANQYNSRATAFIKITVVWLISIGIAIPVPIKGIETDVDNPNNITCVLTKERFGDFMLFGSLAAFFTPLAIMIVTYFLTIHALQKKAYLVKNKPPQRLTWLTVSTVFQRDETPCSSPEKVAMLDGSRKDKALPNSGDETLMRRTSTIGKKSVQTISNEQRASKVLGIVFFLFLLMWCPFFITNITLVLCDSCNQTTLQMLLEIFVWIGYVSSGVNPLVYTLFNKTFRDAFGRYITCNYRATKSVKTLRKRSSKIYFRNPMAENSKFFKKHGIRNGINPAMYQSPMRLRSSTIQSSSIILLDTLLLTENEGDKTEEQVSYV
Chain of cGMP-inhibited 3',5'-cyclic phosphodiesterase 3A (Q14432 whole entry): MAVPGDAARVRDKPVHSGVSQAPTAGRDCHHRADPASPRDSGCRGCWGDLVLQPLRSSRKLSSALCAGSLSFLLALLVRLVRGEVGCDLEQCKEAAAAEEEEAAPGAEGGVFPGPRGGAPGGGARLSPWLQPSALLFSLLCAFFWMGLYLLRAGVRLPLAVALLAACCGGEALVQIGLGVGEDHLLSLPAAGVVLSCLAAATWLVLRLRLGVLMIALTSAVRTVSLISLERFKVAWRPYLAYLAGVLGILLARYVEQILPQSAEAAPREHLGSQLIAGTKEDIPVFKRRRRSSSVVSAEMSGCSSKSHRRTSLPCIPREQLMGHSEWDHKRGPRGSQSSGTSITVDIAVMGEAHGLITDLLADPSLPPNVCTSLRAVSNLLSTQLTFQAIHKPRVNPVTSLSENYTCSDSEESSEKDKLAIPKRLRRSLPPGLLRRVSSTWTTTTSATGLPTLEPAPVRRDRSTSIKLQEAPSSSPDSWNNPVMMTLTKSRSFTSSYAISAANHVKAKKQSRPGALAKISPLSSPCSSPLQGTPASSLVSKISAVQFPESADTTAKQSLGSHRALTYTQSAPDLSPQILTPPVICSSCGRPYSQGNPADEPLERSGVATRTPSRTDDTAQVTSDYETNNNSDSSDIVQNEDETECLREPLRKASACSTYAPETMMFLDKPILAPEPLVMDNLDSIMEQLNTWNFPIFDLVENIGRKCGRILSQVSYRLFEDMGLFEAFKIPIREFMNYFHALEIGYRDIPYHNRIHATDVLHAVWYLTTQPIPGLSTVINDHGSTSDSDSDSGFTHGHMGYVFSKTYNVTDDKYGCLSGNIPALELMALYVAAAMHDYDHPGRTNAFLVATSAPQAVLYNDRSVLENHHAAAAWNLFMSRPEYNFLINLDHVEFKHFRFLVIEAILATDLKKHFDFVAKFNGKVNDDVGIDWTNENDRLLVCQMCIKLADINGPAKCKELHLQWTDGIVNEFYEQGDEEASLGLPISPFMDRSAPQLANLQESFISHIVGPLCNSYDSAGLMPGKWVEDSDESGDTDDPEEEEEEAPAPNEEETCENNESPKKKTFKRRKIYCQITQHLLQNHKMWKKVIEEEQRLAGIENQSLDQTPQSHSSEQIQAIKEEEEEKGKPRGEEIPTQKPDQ
Chain of Melanocortin receptor 3 (P41968 whole entry): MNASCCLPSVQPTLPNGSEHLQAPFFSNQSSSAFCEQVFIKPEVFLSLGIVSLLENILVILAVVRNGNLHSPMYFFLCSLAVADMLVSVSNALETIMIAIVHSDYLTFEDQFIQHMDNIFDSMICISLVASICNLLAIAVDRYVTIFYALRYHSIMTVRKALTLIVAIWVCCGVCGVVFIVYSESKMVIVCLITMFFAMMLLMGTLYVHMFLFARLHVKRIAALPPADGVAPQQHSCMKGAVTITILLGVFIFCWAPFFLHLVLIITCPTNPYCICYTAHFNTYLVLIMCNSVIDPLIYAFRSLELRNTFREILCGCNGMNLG
Chain of Adenosine receptor A2a (P29274 whole entry): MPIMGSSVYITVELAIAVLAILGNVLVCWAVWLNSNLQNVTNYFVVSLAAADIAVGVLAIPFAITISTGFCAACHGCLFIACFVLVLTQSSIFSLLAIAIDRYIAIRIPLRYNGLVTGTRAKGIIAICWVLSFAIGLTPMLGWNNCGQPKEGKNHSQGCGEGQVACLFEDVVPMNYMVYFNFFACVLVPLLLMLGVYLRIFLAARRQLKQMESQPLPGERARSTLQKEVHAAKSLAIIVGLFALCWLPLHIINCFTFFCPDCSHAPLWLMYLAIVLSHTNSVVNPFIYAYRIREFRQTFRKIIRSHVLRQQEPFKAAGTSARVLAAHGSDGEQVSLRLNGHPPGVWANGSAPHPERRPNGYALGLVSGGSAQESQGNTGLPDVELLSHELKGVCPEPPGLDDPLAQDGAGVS

What is called AC50 is the concentration at which the activity in the assay is half-maximal. A low value points to greater potency. Regarding `COC(=O)[C@H]1[C@H]2C[C@@H]3c4[nH]c5ccccc5c4CCN3C[C@H]2C[C@@H](OC(=O)c2cc(OC)c(OC)c(OC)c2)[C@@H]1OC` [DESERPIDINE], the AC50 at D(1A) dopamine receptor was over 10 µM; on Melanocortin receptor 3, over 30 µM; in assay [1] it was over 10 µM; in assay [2] it was over 10 µM; in assay [3], over 10 µM; in [4], over 10 µM. For the same compound, the AC50 was over 30 µM at Vasopressin V1a receptor; over 30 µM in assay [5]; over 30 µM in [6]; over 30 µM on Adenosine receptor A2a; over 10 µM in assay [7]; 24.6 µM in assay [8]. Also, the concentration at half-maximal activity (AC50) at Melanocortin receptor 4 worked out at 8.6 µM.
As for `CC(C)(N)Cc1ccccc1` [PHENTERMINE], the AC50 at D(1A) dopamine receptor is over 10 µM; on Melanocortin receptor 3, over 30 µM; in [1] it was over 10 µM; in assay [2], over 10 µM; in assay [3], over 10 µM; in assay [4], over 10 µM. For the same compound, the AC50 is over 30 µM at Vasopressin V1a receptor; over 30 µM in assay [5]; over 30 µM in assay [6]; over 30 µM at Adenosine receptor A2a; over 10 µM in assay [7]; over 30 µM in assay [8]. Also, the AC50 at Melanocortin receptor 4 is over 30 µM.
Consider `CCC(=O)[C@@]1(C)[C@H](C)C[C@H]2[C@@H]3CCC4=CC(=O)C=C[C@]4(C)[C@H]3[C@@H](O)C[C@@]21C` [RIMEXOLONE], for which the AC50 (on D(1A) dopamine receptor; on Melanocortin receptor 3; in [1]; in [2]; in assay [3]; in assay [4]) was over 10 µM throughout. Also, the AC50 on Vasopressin V1a receptor was over 10 µM; in assay [5] it was over 30 µM; in [6], over 10 µM; at Adenosine receptor A2a, over 10 µM; in assay [7], over 10 µM; in assay [8] it was over 10 µM. At Melanocortin receptor 4, this compound displayed an AC50 of over 10 µM.
For `CCN(CC)C(C)C(=O)c1ccccc1` (configuration not stated) [DIETHYLPROPION], the AC50 on D(1A) dopamine receptor is over 10 µM; on Melanocortin receptor 3, over 30 µM; in [1], over 10 µM; in assay [2], over 10 µM; in [3], over 10 µM; in assay [4], over 10 µM. The AC50 is over 30 µM on Vasopressin V1a receptor; over 30 µM in assay [5]; over 30 µM in assay [6]; over 30 µM on Adenosine receptor A2a; over 10 µM in [7]; over 30 µM in [8]. The compound further came in with a half-maximal activity concentration (AC50) on Melanocortin receptor 4 of over 30 µM.
As to TEPRENONE, the AC50 at D(1A) dopamine receptor was over 10 µM; on Melanocortin receptor 3, over 30 µM; in [1], over 30 µM; in assay [2], over 10 µM; in assay [3], over 10 µM; in assay [4] it was over 10 µM. The AC50 was over 30 µM on Vasopressin V1a receptor; over 30 µM in assay [5]; over 30 µM at Adenosine receptor A2a; over 10 µM in assay [7]; over 30 µM in assay [8]; over 30 µM at Melanocortin receptor 4.
Turning to `CC(=O)N1CCN(c2ccc(OCC3COC(Cn4ccnc4)(c4ccc(Cl)cc4Cl)O3)cc2)CC1` (configuration not stated) [KETOCONAZOLE], the concentration at half-maximal activity (AC50) (at D(1A) dopamine receptor; on Melanocortin receptor 3; in [1]; in assay [3]; in assay [4]; on Vasopressin V1a receptor) was over 10 µM each time. The half-maximal activity concentration (AC50) in assay [5] was over 30 µM; in assay [6], over 10 µM; at Adenosine receptor A2a, over 30 µM; in [7], over 10 µM; in assay [8], over 10 µM; on Melanocortin receptor 4, over 10 µM.
Consider `CC(NC(C)(C)C)C(=O)c1cccc(Cl)c1` (configuration not stated) [BUPROPION], for which the AC50 on D(1A) dopamine receptor was over 10 µM; on Melanocortin receptor 3 it was over 30 µM; in assay [1], over 10 µM; in assay [2] it was over 10 µM; in assay [3] it was over 10 µM; in assay [4], over 10 µM. For the same compound, the AC50 on Vasopressin V1a receptor is over 10 µM; in assay [6], over 30 µM; on Adenosine receptor A2a, over 30 µM; in assay [7] it was over 10 µM; in [8], over 30 µM; at Melanocortin receptor 4, over 30 µM.
Regarding `CCN(CC)CC(=O)Nc1c(C)cccc1C` [LIDOCAINE], the AC50 at Melanocortin receptor 3 was 23 µM; on Vasopressin V1a receptor it was over 10 µM; in assay [5] it was over 10 µM; in assay [6], over 30 µM; at Adenosine receptor A2a, over 30 µM; in assay [8], over 30 µM. This compound also returned an AC50 on Melanocortin receptor 4 of 22.7 µM.
`O=C(O[C@H]1C[N+]2(CCCOc3ccccc3)CCC1CC2)C(O)(c1cccs1)c1cccs1` [ACLIDINIUM BROMIDE]: the AC50 is over 30 µM at Melanocortin receptor 3; over 10 µM in assay [4]; over 10 µM at Vasopressin V1a receptor; over 30 µM in assay [5]; over 30 µM in assay [6]; over 30 µM at Adenosine receptor A2a. For the same compound, the AC50 (in [8]; at Melanocortin receptor 4) was over 30 µM each time.
In the case of `N=C(N)NC(=O)Cc1c(Cl)cccc1Cl` [GUANFACINE], the AC50 on D(1A) dopamine receptor was over 30 µM; on Melanocortin receptor 3, over 30 µM; in [1] it was 5.4 µM; in assay [2] it was over 30 µM; in assay [3], 0.358 µM; in assay [4], 6.88 µM. The AC50 (on Vasopressin V1a receptor; in assay [5]; in assay [6]; at Adenosine receptor A2a; in [8]; on Melanocortin receptor 4) was over 30 µM throughout.
For `Cc1cnc(Nc2ccc(OCCN3CCCC3)cc2)nc1Nc1cccc(S(=O)(=O)NC(C)(C)C)c1` [FEDRATINIB], the AC50 was over 10 µM on D(1A) dopamine receptor; over 30 µM on Melanocortin receptor 3; over 10 µM in assay [2]; over 10 µM in [3]; over 10 µM in [4]; over 30 µM on Vasopressin V1a receptor. The AC50 is over 30 µM in assay [5]; over 30 µM in [6]; 3.75 µM on Adenosine receptor A2a; over 10 µM in assay [7]; 9.16 µM in assay [8]; over 30 µM at Melanocortin receptor 4.
